We go through two compounds from paper PMC10400562, “Label-free measurement of antimicrobial peptide interactions with lipid vesicles and nanodiscs using microscale thermophoresis” (Scientific Reports, 2023).

A short description of data set [1]: Label-free MST, peptide binding to 100 nm vesicles. The conditions noted are these: 2500 nM AMP; for Kd: label-free MST (Trp fluorescence), lipid 0–1.5 mM, 10 mM TRIS pH 7.4 100 mM NaCl, mean ± SD of triplicates, '>' = minimum value; for Vesicle KP, DMPC (MST) / Vesicle KP, DMPC/PG (MST): partition coefficient from initial fluorescence on MST instrument, TRIS pH 7.4, ± SD of triplicate fits, judged unreliable by authors; for Vesicle KP, DMPC (MST): hyperbolic fit after removal of deviant points; for Vesicle KP, DMPC/PG (MST): hyperbolic fit. The source says: For KD evaluation by MST, FHot was registered during the temperature related intensity change (TRIC) phase of the MST trace (see “Methods”). The advantage of evaluating KD during the TRIC phase is that any potential effects of prolonged heating on the thermostability of the sample that may influence the binding can be avoided. The dose–response profile of MST response against lipid concentration for 1–5 largely follows a sigmoidal curve shape (Fig. 3A,B).
DMPC and DMPC:5% DMPG vesicles were prepared by solubilising a known weight of lipid in chloroform with a small amount of methanol to assist in the dissolution of the PG lipid head groups. The chloroform stock was dried in vacuo to produce a lipid film, which was further dried for additional 3 h. The lipid film was solubilised in 10 mM TRIS buffer (pH 7.4) containing 100 mM NaCl to yield a 20 mM milky lipid stock.
To produce the working vesicle stock, 1 mL of vesicle stock was extruded 20 times through a 0.1 µm filter using an Avanti Lipids mini-extruder. Vesicle size was confirmed using a Malvern Zetasizer Nano ZS (Malvern Panalytical Ltd, Malvern, United Kingdom).
(§1) All MST measurements were conducted on a NanoTemper Monolith NT. Labelfree instrument, using Monolith NT. Labelfree standard treated zero background capillaries.
(§2) A dilution series of vesicles/nanodiscs was prepared from 3 mM to 100 nM lipid concentrations, comprising 15 discrete samples, and an additional zero lipid sample, for a total of 16 lipid concentrations. Final MST samples were prepared as a combination of 25 µL lipid solution and 25 µL 5 µM peptide solution (Table S1 in the Supporting Information).
(§3) MST measurements were conducted with excitation power set to 15%, with the MST power set to high. Laser time settings were: 3 s pre-laser, 30 s on time, and 3 s after heating. FHot was taken from the T-jump period after 1.5 s and FCold taken in the second prior to IR laser activation. For the evaluation of KP, the initial fluorescence was taken as the value reported during the period before the application of the laser. The MST response and initial fluorescence were extracted directly as a text file for further processing in MATLAB.
(§4) In a typical binding experiment that yields a sigmoidal curve, the Hill equation can be fitted to yield KD:[66]6 y=y0+EMaxLipid^n/KDn+Lipid^n where y is the MST response, y0 is the MST response of the AMP in an aqueous solution (i.e., in the absence of lipids), n is the Hill coefficient, and EMax is the maximal effect of the tested substrate. The removal of outlying MST response points was necessary. Erroneous points were identified by poor MST trace shapes or higher than expected initial fluorescence that was absent in the other replicates or subsequent points, but otherwise no further treatment of data was necessary. In all instances the MST response was plotted against log lipid concentration in nM and fit to Eq. (6).
(§5) The Kp of a molecule can be determined experimentally by observing changes in fluorescent intensity in the presence of an increasing concentration of lipid, and fitting to Eq. (8)[43].8 I/Iaq=1+KpVmLipidIL/Iaq/1+KPVmLipid
(§6) In Eq. (8) the fluorescence intensity of the AMP (I) is normalised to the fluorescence intensity of the AMP in an aqueous environment (Iaq), Vm is the molar volume of the lipids and IL is the fluorescence intensity of the AMP in the lipidic environment. For Vm, the average molar volume of the lipid composition is used. In the case of the DMPC only environments it is taken as the Vm of DMPC (1.023 nm^3), and in the DMPC-DMPG mixture it is the weighted average relative to the composition used (Vm DMPG = 0.997 nm^3)[54].

Data set [2] in a line: Label-free MST, peptide binding to SMA nanodiscs. The conditions noted are these: for Kd: label-free MST, SMA nanodiscs (anionic belt), 2500 nM AMP, apparent KD dominated by interaction with SMA polymer, mean ± SD of triplicates; for SMA KP, DMPC (MST) / SMA KP, DMPC/PG (MST): partition coefficient from initial fluorescence on MST instrument, SMA nanodiscs, hyperbolic fit, ± SD of triplicate fits. As to the method: (§7) The MST data for two nanodisc types, SMA and SMA-QA, were evaluated using the same methodology as the vesicle data, with FHot taken during the TRIC, and Fnorm plotted against log[lipid] and fit to Eq. (6).
(§8) The DMPC, and DMPC with 5% DMPG 21 mM vesicle stocks were used for the nanodisc preparation. The stocks were combined with an 8% SMA stock solution to yield a final SMA concentration of 1% for SMA nanodiscs. The stocks were combined with a 100 mg/mL SMA-QA stock to yield a final lipid:SMA-QA w/w ratio of 1:1.5. The combined SMA/SMA-QA and lipid mixture were incubated at room temperature overnight and purified by SEC. Fractions containing SMA/SMA-QA discs were concentrated using centrifugation filters. Total lipid concentration was determined by ^31P NMR (Figs. S4–S7). Nanodisc size was confirmed using a Malvern Zetasizer Nano ZS (Malvern Panalytical Ltd, Malvern, United Kingdom).
as §1, §2, §3, §4, §5, §6

The test system of another data set is E. coli ATCC 25922. Format: cell-based. The conditions noted are these: ATCC 25922, 24 h. The method, then: The bacterial strains used were E. coli ATCC 25922 and S. aureus ATCC 9144. Overnight cultures and MIC assays were performed in cationic-adjusted BD BBL Mueller Hinton II Broth (MHB II, 212322, Becton, Dickson and Company, Sparks, MD, USA).
The MICs for 1–5 were determined using the CLSI M07-A9 guidelines. Working solutions were prepared in double distilled water containing max. 1% DMSO. A concentration range between 256–0.25 µg/mL was tested for each peptide. The bacterial inoculum was 1 × 10^6 cells/mL and incubated 1:1 with each test compound in a polypropylene 96-well round-bottom plate (655209, Greiner Bio-One, Kresmmuenster, Austria). Each MIC test was performed in three biological replicates, consisting of four technical replicates. Positive controls (without antibiotics) and negative controls (without bacteria) were included for each technical replicate. The reference antibiotic erythromycin was included to assure quality control. The plates were incubated for 24 h at 37 °C. The MIC value was defined as the lowest concentration of compound resulting in no visible bacterial growth.

The nature of a further data set: SPR; KP from the fits. The conditions noted are these: buffer.
Data set [3] in a line: Label-free MST, peptide binding to SMA-QA nanodiscs. Conditions: for Kd: label-free MST, SMA-QA nanodiscs (cationic belt), 2500 nM AMP, Hill fit, mean ± SD of triplicates, '>' = minimum value; for SMA-QA KP, DMPC (MST) / SMA-QA KP, DMPC/PG (MST): partition coefficient from initial fluorescence on MST instrument, SMA-QA nanodiscs, hyperbolic fit, ± SD of triplicate fits. As to the method:
as §7, §8, §1, §2, §3, §4, §5, §6

Data set [4] in a line: Vesicle; KP from the fits. The conditions noted are these: buffer.
Setting [5] is: Hill fit of Fnorm in TRIC phase, insufficient curve sampling, read-out: Vesicle KD, DMPC (MST).
The mark [6] stands for this setting: Hill fit, read-out: Vesicle KD, DMPC/PG (MST).
[7] abbreviates: read-out: SMA KD, DMPC/PG (MST).
The mark [8] stands for this setting: read-out: SMA-QA KD, DMPC (MST).
[9] abbreviates: read-out: SMA-QA KD, DMPC/PG (MST).

Residues, ends and D or L forms follow the SMILES beside them. A value given as a limit tells only on which side of the number the result lay.

Consider `NCCCC[C@@H]1NC(=O)[C@H](CCCCN)NC(=O)[C@H](Cc2c[nH]c3ccccc23)NC(=O)[C@H](Cc2c[nH]c3ccccc23)NC(=O)[C@H](Cc2c[nH]c3ccccc23)NC(=O)[C@H](CCCCN)NC1=O` [compound 3] (cyclo(WWWKKK)), for which the Kd in data set [1] (setting [5]) is 28 ± 3 µM; in data set [1] (setting [6]) it was 17 ± 13 µM; in data set [2] (read-out: SMA KD, DMPC (MST)), 1100 ± 300 nM; in data set [2] (setting [7]) it was 1100 ± 500 nM; in data set [3] (setting [8]), 267 ± 47 µM; in data set [3] (setting [9]), 145 ± 55 µM. Also, the “Vesicle KP, DMPC (MST)” value in data set [1] is 2.55 ± 0.89 × 10^3. Moreover, the “Vesicle KP, DMPC/PG (MST)” value in data set [1] is 11.05 ± 4.49 × 10^3. In data set [2], the “SMA KP, DMPC (MST)” value is 2.34 ± 1.40 × 10^3. In addition, the “SMA KP, DMPC/PG (MST)” value in data set [2] is reported as 4.21 ± 0.43 × 10^3. For the same compound, the “E. coli MIC (ATCC 25922)” value in the data set on E. coli ATCC 25922 amounted to 8 µg/mL. Besides, the “membrane partition coefficient KP (KP x 10^3)” value in “SPR; KP from the fits” (DMPC bilayer on SPR chip) is 2.53 ± 0.08 x10^3; in “SPR; KP from the fits” (DMPC/PG bilayer on SPR chip), 5.16 ± 0.34 x10^3; in data set [4] (DMPC vesicles (MST)), 2.55 ± 0.89 x10^3; in data set [4] (DMPC/PG vesicles (MST)), 11.05 ± 4.49 x10^3. For the same compound, the “SMA-QA KP, DMPC (MST)” value in data set [3] is on record as 9.16 ± 2.86 × 10^3. Moreover, in data set [3], the “SMA-QA KP, DMPC/PG (MST)” value is listed as 4.93 ± 0.81 × 10^3.

Consider `N=C(N)NCCC[C@@H]1NC(=O)[C@H](Cc2c[nH]c3ccccc23)NC(=O)[C@H](CCCNC(=N)N)NC(=O)[C@H](Cc2c[nH]c3ccccc23)NC(=O)[C@H](CCCNC(=N)N)NC(=O)[C@H](Cc2c[nH]c3ccccc23)NC1=O` [compound 2] (cyclo(WRWRWR)), for which the Kd in data set [1] (setting [5]) is 73 ± 53 µM; in data set [1] (setting [6]), 24 ± 7 µM; in data set [2] (read-out: SMA KD, DMPC (MST)), 2700 ± 500 nM; in data set [2] (setting [7]) it was 5600 ± 1100 nM; in data set [3] (setting [8]), above 541 µM; in data set [3] (setting [9]) it was above 615 µM. For the same compound, the “Vesicle KP, DMPC (MST)” value in data set [1] is on record as 7.08 ± 2.32 × 10^3. Further, the “Vesicle KP, DMPC/PG (MST)” value in data set [1] is 16.97 ± 3.83 × 10^3. In data set [2], the “SMA KP, DMPC (MST)” value is given as 9.72 ± 2.69 × 10^3. Besides, the “SMA KP, DMPC/PG (MST)” value in data set [2] was 3.57 ± 0.36 × 10^3. Moreover, the “E. coli MIC (ATCC 25922)” value in the data set with E. coli ATCC 25922 is 32 µg/mL. Moreover, the “membrane partition coefficient KP (KP x 10^3)” value in the data set “SPR; KP from the fits” (DMPC bilayer on SPR chip) is listed as 1.30 ± 0.09 x10^3; in “SPR; KP from the fits” (DMPC/PG bilayer on SPR chip), 3.16 ± 0.15 x10^3; in data set [4] (DMPC vesicles (MST)), 7.08 ± 2.32 x10^3; in data set [4] (DMPC/PG vesicles (MST)) it was 16.97 ± 3.83 x10^3. For the same compound, the “SMA-QA KP, DMPC (MST)” value in data set [3] was 36.55 ± 11.82 × 10^3. Besides, the “SMA-QA KP, DMPC/PG (MST)” value in data set [3] is given as 12.62 ± 4.16 × 10^3.
